{"source": "paper PMC12430830", "about": "“Discovery of a Novel Cyclopeptide as Tyrosinase Inhibitor for Skin Lightening” (Skin Research and Technology, 2025)", "key": {"human melanocyte cells [1]": {"test_system": "human melanocyte cells", "experiment": "Melanin content in melanocytes", "type": "cell-based", "settings": "n = 3", "protocol": "(§1) Human melanocytes (Batch number: MC210817; Guangdong Biocell Biotechnology Co. Ltd.) were cultured in DMEM/F12 medium supplemented with 20% FBS (Hyclone) and 100 U/mL penicillin at 37°C with 5% CO2 atmosphere.\nUpon reaching 80%–90% confluence, human melanocyte cells were dissolved with 0.25% trypsin to create a single‐cell suspension. Then, the cells were seeded in 6‐well plates at 200 000 cells per well and cultured for 12 h in a 37°C humidified incubator (5% CO2, V/V). When the confluence of cells reached 40%–60%, they were incubated with specific peptides or the positive control for 24 h. Following the incubation period, the supernatant was removed and the adherent cells were washed with PBS before being dispersed using trypsin (700 µL/well, 0.25%). The dispersed cells were collected and centrifuged at 10 000 rpm for 10 min. The cell pellet from each well was then treated with a mixture of distilled water (200 µL), anhydrous ethanol (500 µL), and ether (500 µL). The mixture was vortexed and allowed to stand at room temperature for 20 min, followed by centrifugation at 3000 rpm for 5 min. The precipitate was dissolved in 1 mL of 1 M NaOH containing 10% DMSO, then incubated at 80°C in a water bath for 40 minutes. After incubation, the solution was transferred to a 96‐well culture plate for optical density measurement at 405 nm. Each analysis was performed in triplicate and results were expressed as mean ± standard deviation (SD)."}, "tyrosinase": {"test_system": "tyrosinase", "experiment": "Tyrosinase inhibition assay (intracellular tyrosinase, lysate of treated melanocytes, L‐DOPA)", "type": "cell-based, human", "settings": "cells treated 24 h, 475 nm, n = 3", "protocol": "The inhibition of tyrosinase activity was assessed according to the reported method. The 6‐well plates were incubated at 37°C with human melanocyte cells at a density of 2.5×10^5 cells per well in a humidified atmosphere (5% CO2) for 24 h. Subsequently, these cells were exposed to glabridin (0.00625%, V/V) as the positive control, along with other tested compounds. Following treatment, cells were incubated at 37°C for 24 h using identical conditions. After treatment, cells in each well were rinsed with a PBS buffer solution (500 µL) and lysed with a lysate buffer (100 µL containing 0.5% sodium deoxycholate) at approximately 0°C for 1 h. The resulting cell lysate was then centrifuged at 12 000 rpm at 4°C for 20 min. The protein concentration in the supernatant was quantified by a BCA Assay Kit (Beyotime Biotechnology, China). Samples were transferred to a 96‐well plate in a total volume of 100 µL ([…] of lysate supernatant and 20 µL of 0.1% L‐DOPA) and incubated for 60 min at 37°C. The absorbance was measured at 475 nm using a Synergy multimode reader (BioTek Corporation, USA)."}, "human melanocyte cells [2]": {"test_system": "human melanocyte cells", "settings": "traditional skin‐lightening agent, at similar concentrations; general statement, no reference given; cited from earlier work"}, "human melanocyte cells [3]": {"test_system": "human melanocyte cells", "experiment": "MTT cytotoxicity / growth inhibition in human melanocytes", "type": "cell-based", "settings": "24 h, n = 3", "protocol": "as §1\nFor cytotoxicity, evaluation of peptides on human melanocyte cells was assessed using the standard MTT assay. Cells were seeded in 96‐well plates at a density of 10 000 cells per well and incubated for 12 h under standard culture conditions. […] A negative control group (culture medium containing 10% Dimethyl sulfoxide (DMSO), v/v) was included. Post‐treatment, 0.5 mg/mL MTT reagent was added to each well, followed by 4 h of incubation at 37°C. Formazan crystals formed in viable cells were dissolved in 150 µL DMSO, and absorbance was measured at 490 nm using a Synergy multimode reader (BioTek, USA). Each concentration was tested in triplicate. Statistical significance was determined via one‐way ANOVA (GraphPad Prism 5). All experiments were conducted in triplicate (n = 3)."}}, "note": "Where “and” joins values, the source holds several entries; their conditions need not be identical. Equal values may be shown once. Read-outs that look alike come from different tables or passages of the source.", "data": [{"compound": "CC1(C)C=Cc2c(ccc3c2OC[C@@H](c2ccc(O)cc2O)C3)O1", "note": "[glabridin]", "values": [{"measurement": "inhibition of melanin production", "setting": "human melanocyte cells [1]; glabridin 0.00625% v/v, 24 h", "value": "strong inhibitory effect on melanin production"}, {"measurement": "tyrosinase inhibition rate", "setting": "tyrosinase; glabridin 0.00625% v/v (positive control), L‐DOPA 60 min 37°C", "value": "approximately 14%"}]}, {"compound": "Oc1ccc(O)cc1", "note": "[hydroquinone]", "values": [{"measurement": "cytotoxicity", "setting": "human melanocyte cells [2]", "value": "exhibit cytotoxic effects"}]}, {"compound": "NC[C@H]1CC[C@H](C(=O)O)CC1", "note": "[tranexamic acid]", "values": [{"measurement": "melanin reduction, single compounds", "setting": "human melanocyte cells [1]; tranexamic acid 2.5 mg/mL, nonapeptide‐1 0.3% v/v, 24 h", "value": "melanin‐reducing effects, though not as strongly as CHP‐9 alone"}, {"measurement": "tyrosinase inhibition rate", "setting": "tyrosinase; tranexamic acid 2.5 mg/mL, L‐DOPA 60 min 37°C", "value": 10.71, "unit": "%"}, {"measurement": "change in cell viability", "setting": "human melanocyte cells [3]; tranexamic acid at higher concentrations (5 and 10 mg/mL), not statistically significant", "value": "A slight reduction in cell viability"}]}, {"compound": "Cyclo(Gln‐Gly‐Pro‐Gln‐Gly‐Pro) (head to tail) [CHP‐9]", "values": [{"measurement": "inhibitory effect on melanin production compared with glabridin", "setting": "human melanocyte cells [1]; CHP‐9 1% versus glabridin 0.00625% v/v", "value": "comparable to glabridin"}, {"measurement": "melanin content after treatment", "setting": "human melanocyte cells [1]; CHP‐9 1%, 24 h, OD 405 nm, mean ± SD, untreated control 30.90 ± 1.13 µg/mL", "value": "~23.51 µg/mL and 23.51 ± 1.14 µg/mL"}, {"measurement": "tyrosinase inhibition rate", "setting": "tyrosinase; CHP‐9 1%, lysate with 0.1% L‐DOPA 60 min 37°C", "value": 28.57, "unit": "%"}, {"measurement": "cell viability", "setting": "human melanocyte cells [3]; CHP‐9 across effective concentrations", "value": "> 90", "unit": "%"}, {"measurement": "cytotoxicity", "setting": "human melanocyte cells [3]; at tested concentrations (0.0781–10 mg/mL)", "value": "noncytotoxic to human melanocytes"}]}]}
